Reference: patent publication US20170305861A1, “HETEROARYL COMPOUNDS COMPRISING NITROGEN AND USE THEREOF” (ImmunoMet Therapeutics, Inc, priority 2016, published 2017)
Like-named read-outs stand apart in the source and are kept apart here.

Tests used:
[1] = system: SK-MEL-28 cells; assay: Inhibitory effect of cancer cell proliferation, MTT; format: cell-based; details: Homo sapiens
Method: The compounds prepared in the above Examples were evaluated for the inhibitory effect of cancer cell proliferation according to the method described in the following Test Example.
SK-MEL-28 cells derived from human melanoma were used, and the concentration (cell growth inhibitory concentration, IC50) at which cell growth was inhibited to 50% was measured using MTT reagent (3-(4,5-dimethylthiazole-2-yl)-2,5-[…] bromide) to confirm the inhibitory effect of cancer cell proliferation of the drugs synthesized in Examples 1 to 84.
First, SK-MEL-28 cells were cultured in 96-well plates at a cell number of about 1,250 in RPMI-1640 medium containing 11.1 mM glucose and 10% calf blood serum or 0.75 mM glucose and 10% calf blood serum, and were cultured for 16 hours. […] After treatment of the compound, MTT was added to the culture medium to confirm living cells and further cultured for 2 hours. The resulting formazane crystal was dissolved using dimethyl sulfoxide, and the absorbance of the solution was measured at 555 nm. After culturing for 72 hours, the number of viable cells in the well plate treated with the compounds synthesized in the Examples relative to the number of cells cultured in the well plate without treatment of the compounds was expressed as cell viability (%) according to each treatment concentration. By using this, a cell viability curve graph was prepared, and the inhibitory effect of cancer cell proliferation was confirmed by calculating the concentration of the compound whose growth was inhibited to 50% (IC50).

[2] = system: A549 cell lines (lung cancer cell lines); assay: Oxygen Consumption Rate (OCR) of cells, corrected for cell viability (Cyquant); format: cell-based; details: Homo sapiens, read-out: OCR IC50
Method: The compounds synthesized by the methods disclosed in the Examples of the present invention have been measured on oxygen consumption rate and extracellular oxidation by the methods disclosed in the Test Examples below.
3×10^3 cells from A549 cell lines (purchased from ATCC-American Type Culture Collection), which are lung cancer cell lines, were placed on XF96 cell culture plates using RPMI1640 medium, and cultured at 37° C. in a 5% CO2 condition for 16 hours or more for attachment.
After 16 hours, the cells were treated with the drug at six different concentrations between 0 μM and 20 μM. After 24 hours, the existing medium was removed, and XF assay medium (15 mM D-Glucose, 15 mM sodium pyruvate, 4 mM L-Glutamine, pH 7.4) was added. The cells were retreated with the drug, and additionally cultured in Prep station at 37° C. in a non-CO2 condition for 1 hour. During the one-hour culture in the Prep station, a sensor cartridge was placed and calibrated for 20 minutes, and a plate with cells was placed to analyze the OCR. After the analysis was completed, XF96 plate was measured for cell viability using Cyquant assay, which measures the amount of intracellular DNA, in the following method. XF assay medium and the drug were removed, and the cells were placed in a cryogenic refrigerator (−80° C.) for at least 4 hours to be frozen. After the plate was made to be at room temperature, a solution where a lysis buffer and fluorescent GR dye were mixed was placed by 200 μL per well. After 20-minute reaction at room temperature, […] was measured between […] to calculate cell viability. A measured value of a well untreated with the drug was converted to 100% by reflecting cell viability to the OCR value. Concentration of a drug which inhibits the OCR value reflecting cell viability by 50% was calculated.

[3] = SK-MEL-28, 0.75 mM glucose, 72 hours, MTT, read-out: SK-MEL-28 0.75 mM glucose Cell viability (IC50 μM)
[4] = SK-MEL-28, 11.1 mM glucose, 72 hours, MTT, read-out: SK-MEL-28 11.1 mM glucose Cell viability (IC50 μM)
[5] = A549 cells, 24 h drug treatment, OCR value reflecting cell viability
[6] = SK-MEL-28, 72 h, read-out: SK-MEL-28 0.75 mM glucose Cell viability (IC50 μM)
[7] = SK-MEL-28, 72 h, read-out: SK-MEL-28 11.1 mM glucose Cell viability (IC50 μM)

Structure (SMILES)	IC50 [1, 3] [µM]	IC50 [1, 4] [µM]	IC50 [2, 5] [µM]	IC50 [1, 6] [µM]	IC50 [1, 7] [µM]	IC50 ([2]; A549, 24 h) [µM]
Nc1cc[n+](CC2CC2)c(F)c1 [Example 39, 4-Amino-1-(cyclopropylmethyl)-2-fluoropyridinium chloride]	45.3	76.5	2.7			
Nc1cc[n+](CCC2CCCCC2)c(N)c1 [Example 40, 2,4-Diamino-1-(2-cyclohexylethyl)pyridinium bromide]	7.5	30.6	0.9			
CNc1cc[n+](CC2CC2)cc1 [Example 41, 1-(Cyclopropylmethyl)-4-(methylamino)pyridinium chloride]	35.1	234	2.7			
CN(C)c1cc[n+](CC2CC2)cc1 [Example 42, 1-(Cyclopropylmethyl)-4-(dimethylamino)pyridinium chloride]	35	199	1.5			
Cc1c[n+](Cc2ccccc2)ccc1N [Example 43, 4-Amino-3-methyl-1-benzylpyridinium chloride]	14.4	45.5	0.9			
Cc1c[n+](CCc2ccccc2)ccc1N [Example 44, 4-Amino-3-methyl-1-phenethylpyridinium chloride]	15.2	105	1.1			
COc1cc(N)cc[n+]1Cc1ccccc1 [Example 45, 4-Amino-1-benzyl-2-methoxypyridinium chloride]	16.6	81.4	5			
Nc1cc[n+](CC2CCCCC2)cc1 [Example 46, 4-Amino-1-(cyclohexylmethyl)pyridinium bromide]	7.9	49.6	0.8			
Nc1cc[n+](CC2CCC2)cc1 [Example 47, 4-Amino-1-(cyclobutylmethyl)pyridinium bromide]	20.3	167	5			
Nc1cc[n+](CC2CCC2)c(F)c1 [Example 48, 4-Amino-1-(cyclobutylmethyl)-2-fluoropyridinium bromide]	19.9	46.3	0.8			
Nc1cc[n+](Cc2ccc(F)cc2)cc1 [Example 49, 4-Amino-1-(4-fluorobenzyl)pyridinium bromide]	10.3	54.5	2.4			
c1ccc(C[n+]2ccc(N3CCOCC3)cc2)cc1 [Example 50, 1-Benzyl-4-morpholinopyridinium chloride]	13.9	208	1			
c1ccc(CC[n+]2ccc(N3CCOCC3)cc2)cc1 [Example 51, 4-Morpholino-1-phenethylpyridinium chloride]	29.1	201	3.1			
c1c[n+](CC2CC2)ccc1N1CCOCC1 [Example 52, 4-Morpholino-1-(cyclopropylmethyl)pyridinium chloride]	40	367	0.8			
c1c[n+](CCC2CCCCC2)ccc1N1CCOCC1 [Example 53, 1-(2-Cyclohexylethyl)-4-morpholinopyridinium bromide]	8.7	76.4	0.5			
c1ccc(C[n+]2ccc(N3CCCCCC3)cc2)cc1 [Example 60, 4-(Azepan-1-yl)-1-benzylpyridinium chloride]	20	24.1	3.3			
c1c[n+](CC2CC2)cc2c1NCCC2 [Example 63, 6-(Cyclopropylmethyl)-1,2,3,4-tetrahydro-1,6-naphthyridin-6-ium chloride]	20.4	208	7.1			
c1c[n+](CC2CC2)cc2c1NCCO2 [Example 64, 6-(Cyclopropylmethyl)-2,3-dihydro-1H-pyrido[3,4-b][1,4]oxazin-6-ium chloride]	21	187	10.2			
c1c[n+](CC2CC2)ccc1N1CCC1 [Example 70, 4-(Azetidin-1-yl)-1-(cyclopropylmethyl)pyridinium chloride]	9.4	49.5	3.4			
c1c[se]c(C[n+]2ccc(N3CCCC3)cc2)c1 [Example 72, 4-(Pyrrolidin-1-yl)-1-(selenophen-2-ylmethyl)pyridinium chloride]				2.6	37.2	1
Nc1cc[n+](Cc2ccc[se]2)nc1 [Example 75, 4-Amino-1-(selenophen-2-ylmethyl)pyridazin-1-ium chloride]				57.7	239	18.8
Nc1cc[n+](Cc2ccc[se]2)cc1 [Example 76, 4-Amino-1-(selenophen-2-ylmethyl)pyridinium chloride]				14.1	114	1.5
Nc1cc[n+](Cc2cccs2)cc1 [Example 77, 4-Amino-1-(thiophen-2-ylmethyl)pyridinium chloride]	15.8	106	2.4			

More lines, in order of falling IC50 [1, 3], values ahead:

IC50 [1, 3] [µM]	IC50 [1, 4] [µM]	IC50 [2, 5] [µM]	Structure (SMILES)	IC50 [1, 6] [µM]	IC50 [1, 7] [µM]	IC50 ([2]; A549, 24 h) [µM]
6.8	76.4	3.4	c1cc(C[n+]2ccc(N3CCC3)cc2)cs1 [Example 71, 4-(Azetidin-1-yl)-1-(thiophen-3-ylmethyl)pyridinium bromide]			
6.1	77	5.2	c1ccc(C[n+]2ccc(N3CCC3)cc2)cc1 [Example 66, 4-(Azetidin-1-yl)-1-benzylpyridinium chloride]			
4.4	118	0.8	c1c[n+](CC2CC2)ccc1N1CCCC1 [Example 56, 1-(Cyclopropylmethyl)-4-(pyrrolidin-1-yl)pyridinium chloride]			
3.55	104	2.1	c1coc(C[n+]2ccc(N3CCCC3)cc2)c1 [Example 78, 1-(Furan-2-ylmethyl)-4-(pyrrolidin-1-yl)pyridinium chloride]			
3.4	29.7	1.1	c1ccc(C[n+]2ccc(N3CCCC3)cc2)cc1 [Example 54, 1-Benzyl-4-(pyrrolidin-1-yl)pyridinium chloride]			
3	93.9	2.5	c1c[n+](CC2CCC2)ccc1N1CCCC1 [Example 58, 1-(Cyclobutylmethyl)-4-(pyrrolidin-1-yl)pyridinium chloride]			
2.8	33.4	2.8	c1ccc(C[n+]2ccc(N3CCCCC3)cc2)cc1 [Example 59, 1-Benzyl-4-(piperidin-1-yl)pyridinium chloride]			
1.7	38.5	0.8	c1csc(C[n+]2ccc(N3CCCC3)cc2)c1 [Example 68, 4-(Pyrrolidin-1-yl)-1-(thiophen-2-ylmethyl)pyridinium chloride]			
1.5		15.7	CC(C)(C)CNc1cc[n+](Cc2ccccc2)cc1 [Example 61, 1-Benzyl-4-(neopentylamino)pyridinium chloride]			
1.16	30.7	0.8	Cc1ccc(C[n+]2ccc(N3CCCC3)cc2)s1 [Example 79, 1-((5-Methylthiophen-2-yl)methyl)-4-(pyrrolidin-1-yl)pyridinium chloride]			
1.1	23	0.5	c1c[n+](CC2CCCCC2)ccc1N1CCCC1 [Example 57, 1-(Cyclohexylmethyl)-4-(pyrrolidin-1-yl)pyridinium bromide]			
0.1	45.9	3.1	c1ccc(CC[n+]2ccc(N3CCCC3)cc2)cc1 [Example 55, 1-Phenethyl-4-(pyrrolidin-1-yl)pyridinium chloride]			
